This data set in a line: solubility of the compound in toluene. Format: physicochemical.

The record followed here is patent US9112158B1, “Asymmetric styrene derivatives having carbazole and aniline and organic light emitting diode using the same” (National Tsing Hua University, priority 2014, dated 2015).

Regarding `C(=C\c1ccc(N(c2ccccc2)c2ccccc2)cc1)/c1ccc(-c2ccc(/C=C/c3ccc4c(c3)c3ccccc3n4-c3ccccc3)cc2)cc1` [PCzDPA, N,N-diphenyl-4-[(E)-2-(4-{4-[(E)-2-(9-phenyl-9H-carbazol-3-yl)ethenyl]phenyl}phenyl)ethenyl]aniline], the Solubility is reported as over 1 wt %.
Next, `C(=C\c1ccc(N(c2ccccc2)c2cccc3ccccc23)cc1)/c1ccc(-c2ccc(/C=C/c3ccc4c(c3)c3ccccc3n4-c3ccccc3)cc2)cc1` [PCzNA, N-phenyl-N-{4-[(E)-2-(4-{4-[(E)-2-(9-phenyl-9H-carbazol-3-yl)ethenyl]phenyl}phenyl)ethenyl]phenyl}naphthalen-1-amine]: over 1 wt %.
